According to PMC10988555, “Exploiting Co(III)-Cyclopentadienyl Complexes To Develop Anticancer Agents” (Inorganic Chemistry, 2024):

Key:
[1] = tested on: HCT116 (human colorectal carcinoma) cell line; assay: Antiproliferative activity, MTS assay, HCT116; assay type: cell-based; details: for IC50: 48 h exposure, MTS assay; for Selectivity index (SI), HCT116: IC50 fibroblasts/IC50 HCT116, values with * calculated taking fibroblast IC50 as 100 μM (minimal value)
Method: (§1) Human colorectal carcinoma cell line (HCT116), human breast cancer cell lines (MDA-MB-231 and MCF-7), and normal human primary dermal fibroblasts neonatal (PCS-201-010) cell line were grown in DMEM (Dulbecco’s modified Eagle’s medium) (Invitrogen Corp., Grand Island, NY, USA) supplemented with 10% (v/v) fetal bovine serum and 1% (v/v) antibiotic/antimycotic solution (Invitrogen Corp.). The human ovarian carcinoma (A2780) cell line was cultivated using RPMI (Roswell Park Memorial Institute) medium supplemented as in DMEM medium. The supplemented medium is named a complete medium. Cells were grown in an incubator with a humidified atmosphere at 5% (v/v) CO2 and 37 °C. All cell lines were purchased from ATCC (ATCC, American Type Culture Collection).
(§2) The evaluation of the cytotoxic potential of complexes 1–4 was obtained through in vitro measurements of the antiproliferative activity of these complexes. Cells were plated in 96-well plates at 7.5 × 10^4 cells/mL and incubated at 37 °C with 5% (v/v) CO2. After 24 h, the culture medium was replaced with fresh medium (100 μL) containing 0.1–50 μM of the different complexes and incubated for 48 h in tumor cell lines or containing 0.1–100 μM of the different complexes and incubated for 48 h in fibroblasts. […] The fibroblast cell line was used as a control of the cytotoxicity of the complexes for healthy cells. Cell viability was evaluated using Cell Titer 96 Aqueous Non-Radioactive Cell Proliferation Assay (Promega, Madison, WI, USA) using 3-(4,5-dimethylthiazol-2-yl)-5-(3-carboxymethoxyphenyl)-2-(4-sulfophenyl)-2H-tetrazolium inner salt (MTS), as described previously.[60] In metabolically active cells, enzymes present in the mitochondria catalyze a reaction in which NADPH/NADH is produced. These enzymes reduce the MTS reagent into a brownish product, Formazan, which can be quantified by measuring the absorbance at 490 nm. The quantity of formazan produced is directly proportional to the number of viable cells in the culture. This quantification was executed with a Biorad microplate reader Model 680 (Bio-Rad, Hercules, CA, USA). Half maximal inhibitory concentration (IC50) was calculated using GraphPad Prism 6 (GraphPadSoftware). We have calculated the ratio between the IC50 of fibroblasts and the IC50 of HCT116, A2780, MDA-MB-231, or MCF-7 cell lines for complexes 1–4 that was named herein as the Selectivity index (SI). To ensure the solubility of the complexes in all biological assays, complex solutions were freshly prepared and well solubilized before addition to the cells.

[2] = tested on: A2780 (human ovarian carcinoma) cell line; assay: Antiproliferative activity, MTS assay, A2780; assay type: cell-based; details: for IC50: 48 h exposure, MTS assay; for Selectivity index (SI), A2780: IC50 fibroblasts/IC50 A2780, values with * calculated taking fibroblast IC50 as 100 μM (minimal value)
Method: as §1, §2

[3] = tested on: ROS in A2780 cell line; assay: Production of reactive oxygen species (H2DCF-DA flow cytometry); assay type: cell-based, human; details: A2780, IC50, 48 h, vs DMSO
Method: The production of ROS was evaluated in the A2780 cell line, seeded in 6-well plates at a density of 2 × 10^5 cells/well, and incubated for 24 h at the same conditions as described above. […] Later, cells were washed with PBS 1×, detached from the wells with TE, and incubated with […] of 2′,7′-dichlorodihydrofluorescein diacetate (H2DCF-DA) (ThermoFisher Scientific, Waltham, MA, USA) in PBS 1× for 20 min at 37 °C. The data were obtained through an Attune acoustic focusing flow cytometer (ThermoFisher Scientific) and respective software.

[4] = tested on: A2780 cells; assay: Cell fractioning and ICP-AES (cytosolic, mitochondrial, nuclear fractions); assay type: cell-based, human; details: A2780, 12 h, 10× IC50, 37 °C
Method: Internalization of the complexes in different cellular factions (cytosolic, mitochondrial, or nuclear) of A2780 cells was evaluated by using a cell fractionation kit (Abcam). Cells were seeded in a 24-well plate at a density of 2 × 10^5 cells/mL and incubated for 24 h at 37 °C with 5% (v/v) CO2. […] Cells were then incubated for 12 h at the same conditions as before. The culture media was recovered to a new tube (supernatant fraction) and cells were detached from the T-flask with 250 μL of TE (Gibco by life technologies). Then, we followed the instructions provided by the manufacturer of the cell fractionation kit (Abcam). At the end of the procedure, fresh aqua regia was added to the supernatant tube and to the cellular fractions and incubated overnight at room temperature (RT) in the hood fume. Samples were delivered to Laboratório de Análises/LAQV and the levels of cobalt were evaluated by ICP-AES.

[5] = tested on: MCF-7 (human breast cancer) cell line; assay: Antiproliferative activity, MTS assay, MCF-7; assay type: cell-based; details: for IC50: 48 h exposure, MTS assay
Method: as §1, §2

[6] = tested on: normal human primary dermal fibroblasts; assay: Antiproliferative activity, MTS assay, healthy fibroblasts; assay type: cell-based; details: 48 h exposure, healthy human cells
Method: as §1, §2

[7] = tested on: MDA-MB-231 (human breast cancer) cell line; assay: Antiproliferative activity, MTS assay, MDA-MB-231; assay type: cell-based; details: 48 h exposure
Method: as §1, §2

[8] = tested on: A2780 cell line; assay: Internalization of cobalt by ICP-AES; assay type: cell-based, human; details: A2780, 10× IC50, ICP-AES, cellular fraction
Method: Internalization of the cobalt complexes was evaluated by ICP-AES in the A2780 cell line. For this, the A2780 cell line was seeded in 25 cm^2 T-flasks at a density of 5 × 10^5 cells/T-flask and incubated for 24 h at 37 °C with 5% (v/v) CO2. […] Cells were then incubated for 3, 6, and 12 h at the same conditions as before and for 12 h at 4 °C. The culture media was recovered to a new tube (supernatant fraction) and cells were detached from the T-flask with 2 mL of TripLE Express (TE) (Gibco by life technologies) and centrifuged at 750 × g for 5 min. Then, fresh aqua regia was added to the supernatant tube and to the cellular fractions and incubated overnight at room temperature (RT) in the hood fume. Samples were delivered to Laboratório de Análises/LAQV and the levels of cobalt were evaluated by ICP-AES.

[9] = tested on: A2780 cell line; assay: Mitochondrial membrane potential (ΔΨM), JC-1 flow cytometry; assay type: cell-based, human; details: A2780, IC50, 48 h, JC-1 red/green ratio vs DMSO
Method: ΔΨM was evaluated in the A2780 cell line using the JC-1 Mitochondrial Membrane Potential Assay Kit (Abnova, Taipei, Taiwan). Cells were seeded at a density of 2 × 10^5 cells/well in 6-well plates and incubated for 24 h. […] After an incubation of 48 h, the cells were washed with PBS 1×, detached with TE, and incubated with JC-1 in RPMI medium without phenol red + 5% (v/v) FBS for 20 min at 37 °C. The cells were then resuspended in the same medium and the ΔΨM was evaluated with the Attune acoustic focusing flow cytometer (ThermoFisher Scientific) and respective software.

| SMILES | IC50 [1] | Selectivity index (SI), HCT116 [1] | IC50 [2] | Selectivity index (SI), A2780 [2] | ROS production relative to control [3] | Percentage of internalization in cytosol [4] | Percentage of internalization in mitochondria [4] | Percentage of internalization in nucleus [4] | IC50 [5] | Selectivity index (SI), MCF-7 ([5]; IC50 fibroblasts/IC50 MCF-7, value with * calculated taking fibroblast IC50 as 100 μM (minimal value)) | IC50 [6] | IC50 [7] | Percentage of internalization, 3 h at 37 °C [8] | Percentage of internalization, 6 h at 37 °C [8] | Percentage of internalization, 12 h at 37 °C [8] | mitochondrial membrane potential (ΔΨM) change [9] |
| --- | --- | --- | --- | --- | --- | --- | --- | --- | --- | --- | --- | --- | --- | --- | --- | --- |
| Nc1cc2cccnc2c2ncccc12.O=S(=O)([O-])C(F)(F)F.O=S(=O)([O-])C(F)(F)F.[Co+3].c1cc[cH-]c1.c1ccc(P(c2ccccc2)c2ccccc2)cc1 [Complex 4, [CoCp(PPh3)(NH2phen)][(CF3SO3)2]] | 14.1 ± 0.2 µM | 7.1* | 4.7 ± 0.09 µM | 21.3* | 1.9 × | 66.4% ± 14.7 | 4.5% ± 2.1 | 18.4% ± 4.9 | 10.2 ± 0.1 µM | 9.8* | > 100 µM | > 50 µM | 33.7% ± 2.7 | 43.6% ± 5.8 | 89.3% ± 10.6 | an increase in ΔΨM was observed |
| Cc1ccnc(-c2cc(C)ccn2)c1.O=S(=O)([O-])C(F)(F)F.O=S(=O)([O-])C(F)(F)F.[Co+3].c1cc[cH-]c1.c1ccc(P(c2ccccc2)c2ccccc2)cc1 [Complex 2, [Co(η^5-C5H5)(PPh3)(Me2bipy)][(CF3SO3)2]] | 15.3 ± 0.2 µM | 6.5* | 6.1 ± 0.1 µM | 16.4* | only a slight increase in the % of ROS | 36.9% ± 10.4 | 17.6% ± 6.5 | 38.1% ± 7.4 | > 50 µM |  | > 100 µM | > 50 µM | 40.6% ± 2.0 | 50.7% ± 3.3 | 92.6% ± 6.5 | low (without statistical significance) ΔΨM |
| O=S(=O)([O-])C(F)(F)F.O=S(=O)([O-])C(F)(F)F.[Co+3].c1cc[cH-]c1.c1ccc(P(c2ccccc2)c2ccccc2)cc1.c1cnc2c(c1)ccc1cccnc12 [Complex 3, [Co(η^5-C5H5)(PPh3)(phen)][(CF3SO3)2]] | 13.4 ± 0.1 µM | 7.5* | 6.2 ± 0.1 µM | 16.1* | 1.7 × | 30.6% ± 2.7 | 26.0% ± 11.4 | 20.3% ± 5.8 | > 50 µM |  | > 100 µM | > 50 µM | 49.7% ± 3.5 | 31.9% ± 10.2 | 76.9% ± 15.9 | low (without statistical significance) ΔΨM |
